Results from ChEMBL document CHEMBL4665919, “Novel Tricyclic Pyroglutamide Derivatives as Potent RORγt Inverse Agonists Identified using a Virtual Screening Approach” (ACS Med Chem Lett, 2020).
pEC50, pIC50: −log10 of the molar value.

How the values were obtained:
[1] = system: HepG2; test: Cytotoxicity against human HepG2 cells assessed as reduction in cell viability
[2] = Half life in rat liver microsomes; assay type: ADME, Microsome
[3] = Protein binding in human; assay type: ADME
[4] = biological target: Cytochrome P450 2C9 (Homo sapiens, UniProt P11712); test: Inhibition of CYP2C9 (unknown origin); assay type: ADME
Chain of Cytochrome P450 2C9 (P11712 whole entry): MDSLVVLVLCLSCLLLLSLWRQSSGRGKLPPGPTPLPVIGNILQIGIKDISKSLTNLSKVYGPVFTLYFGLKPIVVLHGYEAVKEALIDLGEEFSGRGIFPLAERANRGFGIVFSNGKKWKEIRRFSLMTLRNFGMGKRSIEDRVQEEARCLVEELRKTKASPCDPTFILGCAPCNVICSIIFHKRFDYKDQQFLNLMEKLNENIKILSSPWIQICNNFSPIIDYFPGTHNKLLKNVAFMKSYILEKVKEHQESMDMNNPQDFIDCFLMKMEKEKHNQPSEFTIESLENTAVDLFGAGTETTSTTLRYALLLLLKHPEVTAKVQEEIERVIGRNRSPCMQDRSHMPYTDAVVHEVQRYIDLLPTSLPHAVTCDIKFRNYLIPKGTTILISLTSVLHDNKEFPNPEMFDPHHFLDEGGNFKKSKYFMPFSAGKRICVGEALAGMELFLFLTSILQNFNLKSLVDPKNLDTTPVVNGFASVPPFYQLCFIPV

[5] = Half life in mouse liver microsomes; assay type: ADME, Microsome
[6] = Oral bioavailability in BALB/c mouse at 4 mg/kg; assay type: ADME, organism-based; conditions: in vivo
[7] = Drug concentration in BALB/c mouse at 4 mg/kg, po measured upto 24 hrs; assay type: ADME, organism-based; conditions: in vivo, read-out: Drug uptake
[8] = AUC in BALB/c mouse at 2 mg/kg, iv measured upto 72 hrs; assay type: ADME, organism-based; set-up: route intravenous, dose 2 mg/kg, time <=72; conditions: in vivo
[9] = AUC in BALB/c mouse at 2 mg/kg, iv; assay type: ADME, organism-based; set-up: dose 2 mg/kg; conditions: in vivo
[10] = Kinetic solubility of compound in acetate buffer at pH 6.5; assay type: physicochemical; conditions: read-out: Kinetic_solubility
[11] = Permeability across apical to basolateral side in human Caco2 cells; assay type: ADME, cell-based; conditions: Caco-2, read-out: permeability
[12] = biological target: Cytochrome P450 2C19 (Homo sapiens, UniProt P33261); test: Inhibition of CYP2C19 (unknown origin); assay type: ADME
Chain of Cytochrome P450 2C19 (P33261 whole entry): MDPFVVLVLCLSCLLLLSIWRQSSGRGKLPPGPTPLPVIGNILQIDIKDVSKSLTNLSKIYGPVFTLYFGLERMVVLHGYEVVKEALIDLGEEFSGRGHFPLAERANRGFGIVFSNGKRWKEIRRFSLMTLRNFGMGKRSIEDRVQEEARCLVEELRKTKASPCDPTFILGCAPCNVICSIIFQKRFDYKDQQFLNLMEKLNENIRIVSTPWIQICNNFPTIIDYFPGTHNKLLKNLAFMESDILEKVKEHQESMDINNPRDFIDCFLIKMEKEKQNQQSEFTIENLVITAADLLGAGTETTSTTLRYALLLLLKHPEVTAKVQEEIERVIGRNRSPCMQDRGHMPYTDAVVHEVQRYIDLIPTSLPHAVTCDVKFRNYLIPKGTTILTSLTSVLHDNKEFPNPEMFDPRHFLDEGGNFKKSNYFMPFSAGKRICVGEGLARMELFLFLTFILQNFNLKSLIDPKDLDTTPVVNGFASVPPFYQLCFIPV

[13] = Half life in human liver microsomes; assay type: ADME, Microsome
[14] = biological target: T1, Nuclear receptor ROR-alpha (Homo sapiens, UniProt P35398); test: Inverse agonist activity at Gal4-fused RORalpha (unknown origin)
T1 sequence (P35398 whole entry): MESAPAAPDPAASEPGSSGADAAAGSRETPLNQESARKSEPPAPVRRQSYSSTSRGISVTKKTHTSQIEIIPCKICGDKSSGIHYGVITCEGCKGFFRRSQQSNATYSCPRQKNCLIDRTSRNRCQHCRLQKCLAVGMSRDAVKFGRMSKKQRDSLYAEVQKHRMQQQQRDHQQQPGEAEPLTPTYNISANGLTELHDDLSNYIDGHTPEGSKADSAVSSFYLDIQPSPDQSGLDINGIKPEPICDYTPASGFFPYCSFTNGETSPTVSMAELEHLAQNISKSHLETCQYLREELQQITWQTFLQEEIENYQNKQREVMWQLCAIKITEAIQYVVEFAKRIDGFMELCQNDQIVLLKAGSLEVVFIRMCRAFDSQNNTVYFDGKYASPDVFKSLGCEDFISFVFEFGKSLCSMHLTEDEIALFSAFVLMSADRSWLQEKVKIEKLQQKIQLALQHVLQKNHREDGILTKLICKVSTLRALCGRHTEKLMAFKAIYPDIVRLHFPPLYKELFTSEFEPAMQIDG

[15] = Cmax in BALB/c mouse at 4 mg/kg, po; assay type: ADME, organism-based; set-up: route oral, dose 4 mg/kg; conditions: in vivo
[16] = AUC in BALB/c mouse at 4 mg/kg, po; assay type: ADME, organism-based; set-up: dose 4 mg/kg; conditions: in vivo
[17] = Half life in BALB/c mouse at 2 mg/kg, iv; assay type: ADME, organism-based; conditions: in vivo
[18] = biological target: Cytochrome P450 2D6 (Homo sapiens, UniProt P10635); test: Inhibition of CYP2D6 (unknown origin); assay type: ADME
Chain of Cytochrome P450 2D6 (P10635 whole entry): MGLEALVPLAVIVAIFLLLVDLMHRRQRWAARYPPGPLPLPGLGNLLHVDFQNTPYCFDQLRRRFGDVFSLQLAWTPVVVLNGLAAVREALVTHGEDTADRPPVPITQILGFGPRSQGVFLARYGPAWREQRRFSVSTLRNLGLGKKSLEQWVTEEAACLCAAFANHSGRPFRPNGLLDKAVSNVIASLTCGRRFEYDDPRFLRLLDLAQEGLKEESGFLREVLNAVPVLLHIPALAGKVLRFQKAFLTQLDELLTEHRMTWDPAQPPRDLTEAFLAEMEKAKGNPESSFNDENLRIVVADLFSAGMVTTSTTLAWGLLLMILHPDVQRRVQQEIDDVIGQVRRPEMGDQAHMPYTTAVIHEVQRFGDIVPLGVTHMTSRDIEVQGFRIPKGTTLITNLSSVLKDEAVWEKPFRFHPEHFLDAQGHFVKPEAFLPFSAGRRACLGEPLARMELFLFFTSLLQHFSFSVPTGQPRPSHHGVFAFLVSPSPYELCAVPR

[19] = Protein binding in mouse; assay type: ADME, organism-based; conditions: in vivo
[20] = biological target: T2, Cytochrome P450 2C8 (Homo sapiens, UniProt P10632); test: Inhibition of CYP2C8 (unknown origin); assay type: ADME
T2 sequence (P10632 whole entry): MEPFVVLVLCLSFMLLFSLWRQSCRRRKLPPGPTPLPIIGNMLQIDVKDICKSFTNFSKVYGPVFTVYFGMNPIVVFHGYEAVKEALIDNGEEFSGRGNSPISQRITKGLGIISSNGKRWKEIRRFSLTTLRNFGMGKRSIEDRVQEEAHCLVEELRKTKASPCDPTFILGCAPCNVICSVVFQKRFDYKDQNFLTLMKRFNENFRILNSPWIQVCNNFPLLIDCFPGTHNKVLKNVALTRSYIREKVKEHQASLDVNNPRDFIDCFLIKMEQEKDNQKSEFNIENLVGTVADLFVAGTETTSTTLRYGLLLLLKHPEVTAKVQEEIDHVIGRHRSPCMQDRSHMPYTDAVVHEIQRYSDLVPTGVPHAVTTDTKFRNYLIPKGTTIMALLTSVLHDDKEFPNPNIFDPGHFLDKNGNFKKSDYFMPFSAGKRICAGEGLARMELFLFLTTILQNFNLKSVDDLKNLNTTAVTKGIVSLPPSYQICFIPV

[21] = AUC in BALB/c mouse at 4 mg/kg, po measured upto 72 hrs; assay type: ADME, organism-based; set-up: route oral, dose 4 mg/kg, time <=72; conditions: in vivo
[22] = biological target: T3, Nuclear receptor ROR-beta (Homo sapiens, UniProt Q92753); test: Inverse agonist activity at Gal4-fused RORbeta (unknown origin)
T3 sequence (Q92753 whole entry): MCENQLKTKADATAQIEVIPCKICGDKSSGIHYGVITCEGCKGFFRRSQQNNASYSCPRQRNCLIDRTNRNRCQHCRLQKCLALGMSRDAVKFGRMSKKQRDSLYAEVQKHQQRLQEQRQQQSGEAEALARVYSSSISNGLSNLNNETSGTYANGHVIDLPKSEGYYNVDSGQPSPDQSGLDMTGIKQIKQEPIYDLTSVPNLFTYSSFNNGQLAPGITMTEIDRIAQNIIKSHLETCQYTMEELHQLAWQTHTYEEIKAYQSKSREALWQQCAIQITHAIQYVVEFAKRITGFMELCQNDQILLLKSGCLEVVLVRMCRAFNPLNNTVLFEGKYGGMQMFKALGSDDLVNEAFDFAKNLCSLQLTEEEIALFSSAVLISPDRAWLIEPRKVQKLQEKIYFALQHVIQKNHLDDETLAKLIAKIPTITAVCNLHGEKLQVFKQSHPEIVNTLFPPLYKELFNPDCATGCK

[23] = biological target: T4, Nuclear receptor subfamily 1 group I member 2 (Homo sapiens, UniProt O75469); test: Inverse agonist activity at PXR (unknown origin)
T4 sequence (O75469 whole entry): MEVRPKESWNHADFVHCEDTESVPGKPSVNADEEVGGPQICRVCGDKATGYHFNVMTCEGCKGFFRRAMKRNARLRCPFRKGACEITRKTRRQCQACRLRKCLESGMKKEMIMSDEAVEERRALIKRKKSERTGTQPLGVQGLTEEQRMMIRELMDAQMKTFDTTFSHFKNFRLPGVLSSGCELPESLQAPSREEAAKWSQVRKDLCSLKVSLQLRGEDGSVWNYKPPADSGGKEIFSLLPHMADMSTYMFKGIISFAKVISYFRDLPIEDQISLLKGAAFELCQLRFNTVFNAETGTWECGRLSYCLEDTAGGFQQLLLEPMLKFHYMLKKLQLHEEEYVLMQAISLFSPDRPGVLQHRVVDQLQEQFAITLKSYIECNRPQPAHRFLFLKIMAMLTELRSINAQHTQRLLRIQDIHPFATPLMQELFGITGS

[24] = Tmax in BALB/c mouse at 4 mg/kg, po; assay type: ADME, organism-based; conditions: in vivo
[25] = Kinetic solubility of compound in 0.1 N HCK solvent at pH 1; assay type: physicochemical; conditions: 0.1 N HCl (printed 0.1 N HCK), read-out: Kinetic_solubility

half-life [2]: > 2 h
fraction unbound [3]: 0.025
pIC50 [4]: 5.31
half-life [5]: > 2 h
bioavailability [6]: 94%
concentration at 24 h [7]: 620 nM
AUC at 72 h [8]: 23 µM·h
AUC [9]: 23.7 µM·h
solubility kinetic [10]: < 1 µg/mL
Papp A→B [11]: 9.3 ×10⁻⁶ cm/s
pIC50 [12]: < 4.70
half-life [13]: > 2 h
pEC50 [14]: < 5.00
Cmax [15]: 2200 nM
AUC [16]: 44.4 µM·h
half-life [17]: 15 h
pIC50 [18]: < 4.70
fraction unbound [19]: 1.3%
pIC50 [20]: < 4.70
AUC at 72 h [21]: 43.9 µM·h
pEC50 [22]: 5.08
pEC50 [23]: < 4.30
Tmax [24]: 4.3 h
solubility kinetic [25]: < 1 µg/mL
Compound: CC(C)(O)CN1C(=O)[C@H](F)C[C@H]1C(=O)N1CC[C@@]2(S(=O)(=O)c3ccc(F)cc3)c3ccc(C(F)(C(F)(F)F)C(F)(F)F)cc3CC[C@@H]12
pEC50 [1]: < 4.00
